Measurements taken from patent US20050171182A1, “Methods and compositions for use in the treatment of mutant receptor tyrosine kinase driven cellular proliferative diseases” (priority 2003, published 2005).
Like-named read-outs stand apart in the source and are kept apart here. One block for each compound: values may come before it.

Experiments:
EOL-1 cells = assay: cells; conditions: for IC50: read-out: Viability (IC50) EOL-1; for effect on viability of EOL-1 cells, presence of cytokines: 1 μM (U0126 10 μM), FIGS. 2, 4, 6, GM-CSF and IL-3 10 ng/mL each
Protocol: (§1) Given that mutant Flt3 activates cyclin D/CDK4 signaling, the effect of the CDK4 inhibitor arcyriaflavin on the viability of MV4-11 cells was tested. As a control in this experiment, an inhibitor for cyclin A/CDK2 and cyclin E/CDK2 (purvalanol) as well as an inhibitor for cyclin B/CDK1 (alsterpaullone) was included. […] The inhibitors were also tested against EOL-1 cells, which express the mutant fusion kinase FiplL1-PDGFROα and against K562 and BV173 cells (CML cell lines) and THP-1 and U937 cells (AML cell lines). The dilution range of the inhibitors was from 20 μM to 10 nM.
(§2) Viability of the cell lines was determined by an MTT assay, which is based on the reduction of the tetrazolium salt 3, [4,5-dimethylthiazol-2-yl]-2,5-diphenyltetrazolium bromide (MTT). Mitochondrial enzymes associated with metabolic activity reduce MTT to a formazan dye, which can be measured spectrometrically. Cells undergoing apoptosis show reduced metabolic activity resulting in reduced formation of the formazan dye.
(§3) The bone marrow environment is known to contain a multitude of cytokines. […] The cell lines were incubated with the appropriate inhibitor in the presence and absence of the cytokines GM-CSF and IL-3 (10 ng/mL each).
(§4) To test the role of MEK in the survival of MV4-11 and EOL-1 cells, a viability assay (48 hour incubation) was performed using U0126 (10 μM), an MEK specific inhibitor (see FIG. 5).

MV4-11 cells = assay: cells; conditions: for IC50: read-out: Viability (IC50) MV4-11
Protocol: as §1, §2, §3, §4

THP-1 cells = assay: cells; conditions: for effect on viability of THP-1 cells: 48 hours, arcyriaflavin 1 μM, U0126 10 μM, FIGS. 4-6, absence and presence of cytokines; for IC50: read-out: Viability (IC50) THP-1
Protocol: as §1, §2, §3, §4

K562 cells = assay: MTT viability assay, K562 cells; assay type: cell-based
Protocol: as §1, §2

BV173 cells = assay: MTT viability assay, BV173 cells; assay type: cell-based
Protocol: as §1, §2

U937 cells = assay: MTT viability assay, U937 cells; assay type: cell-based
Protocol: as §1, §2

[1] = 48 hours, arcyriaflavin 1 μM, U0126 10 μM, FIGS. 5, 6, absence and presence of cytokines
[2] = exposed to inhibitor for 72 hours
[3] = exposed to inhibitor for 72 hours, MTT

Compound: N#CC(=C(/N)Sc1ccccc1N)/C(C#N)=C(\N)Sc1ccccc1N [U0126, 1,4-diamino-2,3-dicyano-1,4-bis[2-aminophenylthio]butadiene]
- effect on survival/viability of EOL-1 cells, overall (EOL-1 cells; [1]): slightly alters
- viability at 10 µM (EOL-1 cells; Homo sapiens, EOL1, 48 h, read-out: Viability (%) EOL-1 cell line, Cytokines Absent): 80%
- Viability (%) EOL-1 cell line, GM-CSF/IL-3 (10 ng/mL each) (EOL-1 cells; human, 48 h, 10 μM): 103%
- effect on survival/viability of MV4-11 cells, overall (MV4-11 cells; [1]): slightly alters
- viability at 10 µM (MV4-11 cells; Homo sapiens, MV4-11, 48 h, read-out: Viability (%) MV4-11 cell line, Cytokines Absent): 103%
- Viability (%) MV4-11 cell line, GM-CSF/IL-3 (10 ng/mL each) (MV4-11 cells; human, 48 h, 10 μM): 90%
- effect on viability of THP-1 cells (THP-1 cells): slightly alters
- viability at 10 µM (THP-1 cells; Homo sapiens, THP-1, 48 h, read-out: Viability (%) THP-1 cell line, Cytokines Absent): 79%
- Viability (%) THP-1 cell line, GM-CSF/IL-3 (10 ng/mL each) (THP-1 cells; human, 48 h, 10 μM): 97%

- IC50 (K562 cells; Homo sapiens, K562, exposed to inhibitor for 72 hours): > 10 µM
- IC50 (MV4-11 cells; Homo sapiens, MV4-11, 72 h): 1000 nM
- IC50 (THP-1 cells; Homo sapiens, THP-1, 72 h): 1 µM
- IC50 (U937 cells; Homo sapiens, U-937, exposed to inhibitor for 72 hours): 0.6 µM
Compound: O=C1Cc2c([nH]c3ccc([N+](=O)[O-])cc23)-c2ccccc2N1 [alsterpaullone]
- IC50 (BV173 cells; Homo sapiens, BV-173, exposed to inhibitor for 72 hours): 1 µM
- IC50 (EOL-1 cells; Homo sapiens, EOL1, 72 h): 1000 nM

Compound: O=C1NC(=O)c2c1c1c3ccccc3[nH]c1c1[nH]c3ccccc3c21 [arcyriaflavin, arcyriaflavin A]
- IC50 (K562 cells; [2]): > 10 µM
- IC50 (BV173 cells; [2]): > 10 µM
- Viability (%) EOL-1 cell line, GM-CSF/IL-3 (10 ng/mL each) (EOL-1 cells): 60%
- effect on viability of EOL-1 cells, presence of cytokines (EOL-1 cells; 48 hours): much reduced
- IC50 (EOL-1 cells; [3]): 200 nM
- Viability (%) MV4-11 cell line, GM-CSF/IL-3 (10 ng/mL each) (MV4-11 cells): 52%
- effect on viability of MV4-11 cells, presence of cytokines (MV4-11 cells; 48 hours, 1 μM (U0126 10 μM), FIGS. 3, 4, 6, GM-CSF and IL-3 10 ng/mL each): much reduced
- IC50 (MV4-11 cells; [3]): 500 nM
- Viability (%) THP-1 cell line, GM-CSF/IL-3 (10 ng/mL each) (THP-1 cells): 96%
- effect on viability of THP-1 cells (THP-1 cells): not affected
- IC50 (THP-1 cells; [3]): > 10 µM
- IC50 (U937 cells; [2]): > 10 µM

Compound: CS(=O)(=O)O.Cc1ccc(NC(=O)c2ccc(CN3CCN(C)CC3)cc2)cc1Nc1nccc(-c2cccnc2)n1 [imatinib]
- effect on viability of EOL-1 cells, presence of cytokines (EOL-1 cells; 48 hours): much less affected
- effect on viability of EOL-1 cells, absence of cytokines (EOL-1 cells; 48 hours, 1 μM, FIGS. 2, 4, cytokines absent): strongly reduce

- IC50 (K562 cells; [2]): > 10 µM
- IC50 (MV4-11 cells; [3]): 3000 nM
- IC50 (THP-1 cells; [3]): > 10 µM
- IC50 (U937 cells; [2]): > 10 µM
Compound: purvalanol
- IC50 (BV173 cells; [2]): > 10 µM
- IC50 (EOL-1 cells; [3]): > 10000 nM
